US20240100120A1 (priority 2019, published 2024)
Where a SMILES comes first, the peptide text is derived from it. Bridges are numbered along the chain shown (N, C = ends). [ ]: non-standard residue; d: D form. Orn = NCCC[C@H](N)C(=O)O; Mpa = O=C(O)CCS

Assays:
[1] = tested on: opioid self-administration; settings: Kovacs G L, et al. Life Sci. 1985; cited from earlier work
[2] = tested on: hypopnea and apnea; settings: human sleep apnea patients; cited from earlier work
[3] = tested on: side effects (e.g., respiratory depression) of opioid receptor agonists; settings: oxytocin 0.32 mg/kg subcutaneously; heroin 0.1-1.0 mg/kg; rhesus monkeys
[4] = tested on: integrated phrenic nerve activity (iPNA); opioid OIRD; settings: rat, in vivo
[5] = tested on: fentanyl OIRD (integrated phrenic nerve activity, iPNA); settings: rat, in vivo, iv

CC[C@H](C)[C@@H]1NC(=O)[C@H](Cc2ccc(O)cc2)NC(=O)[C@@H](N)CSSC[C@@H](C(=O)N2CCC[C@H]2C(=O)N[C@@H](CC(C)C)C(=O)NCC(N)=O)NC(=O)[C@H](CC(N)=O)NC(=O)[C@H](CCC(N)=O)NC1=O [oxytocin]
opioid self-administration [1]: reduces opioid self-administration
frequency of hypopnea, apnea and hypopnea duration and related arousal [2]: improved
reversal of side effects (e.g., respiratory depression) of opioid receptor agonists [3]: reversed
reduction of OIRD by OXT delivered into the PVN [4]: does not reduce OIRD

(Phenylacl-D-Tyr(Et)2,Lys6,Arg8,des-Gly9)-vasopressin trifluoroacetate [V1aRX]
effect of V1aR antagonism on OXTN reversal of OIRD [5]: significantly enhances reversal
effect of V1aR antagonism on high dose OXTN reversal of OIRD [5]: efficacy is restored

CCOc1ccc(C[C@H]2NC(=O)CCSSC[C@@H](C(=O)N3CCC[C@H]3C(=O)N[C@@H](CCCN)C(=O)NCC(N)=O)NC(=O)[C@H](CC(N)=O)NC(=O)[C@H]([C@@H](C)O)NC(=O)[C@H]([C@@H](C)CC)NC2=O)cc1 [atosiban] ([Mpa][dY](Et)ITNCP[Orn]G-NH2; disulfide 1-6)
effect of OXTN receptor antagonism on OXTN reversal of FENT OIRD [5]: prevents OXTN (5 μg/kg) reversal of FENT OIRD
